According to patent publication US20260242759A1, “GQ/11 Protein Peptidomimetics” (Vrije Universiteit Brussel, priority 2022, published 2026):
Non-standard residues stand in square brackets, D forms with d. Residues, ends and D or L forms follow the SMILES beside them. Cha = N[C@@H](CC1CCCCC1)C(=O)O

Legend:
[1] = target: T1, human ghrelin receptor (GHSR) (Homo sapiens, UniProt Q92847, C146S/C304S); test: Bimane fluorescence assay on purified ghrelin receptor in nanodiscs; type: biochemical; settings: bimane labeled GHSR, in presence of JMV1843
T1 construct: integrin α5 fragment (N); polyhistidine tag (C); made in house; host or cells: E. coli BL21(DE3)
How it was run: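 E. coli-expressed human ghrelin receptor (cysmin mutant, N-terminal integrin α5 fragment, C-terminal His-tag) purified into lipid nanodiscs and labelled with monobromobimane at Cys255 (16 h, 4° C, dark). Labelled receptor (0.2 μM final) incubated 2 h at 20° C with or without JMV1843 (20 μM) and peptidomimetics at varying molar ratios, or Gαqβ1γ2 at 1:5 receptor:G protein; emission scanned 440–520 nm with excitation at 380 nm for λmax shift.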

ghrelin receptor = target: T2, ghrelin receptor (Homo sapiens, UniProt Q92847); test: IP-One Gq assay; type: cell-based; settings: peptidomimetic at 10 μM, varying MK0677; FIG. 8
T2 construct: expressed in transfected cells; host or cells: HEK293 cells overexpressing the ghrelin receptor
T2 sequence (Q92847 whole entry): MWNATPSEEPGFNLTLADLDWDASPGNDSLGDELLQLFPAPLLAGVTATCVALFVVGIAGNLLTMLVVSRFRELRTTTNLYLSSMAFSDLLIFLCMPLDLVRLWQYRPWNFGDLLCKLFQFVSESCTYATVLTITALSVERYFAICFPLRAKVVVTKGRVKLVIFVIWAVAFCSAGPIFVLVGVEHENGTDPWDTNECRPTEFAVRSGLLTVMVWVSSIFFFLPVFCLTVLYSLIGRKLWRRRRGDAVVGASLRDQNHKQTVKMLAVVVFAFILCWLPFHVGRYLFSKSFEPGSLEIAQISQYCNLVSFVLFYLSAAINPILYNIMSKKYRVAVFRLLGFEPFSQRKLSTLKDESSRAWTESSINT
Protocol: IP-One assays were conducted by using a homogeneous time-resolved fluorescence resonance energy transfer (TRFRET) assay (cisbio, IP-One Gq kit). The assays were performed on 384-well plates, containing 5000 cells/well. The HEK293 cells, in stimulation buffer (1×), were incubated with 5 or 10 μM of peptides (in stimulation buffer) during 1 h at 37° C. […] Finally, the d2-labeled IP1 and anti-IP1-cryptate, diluted in lysis buffer, were added to each well and incubated at room temperature. After 2 h of incubation in the dark, the plates were analyzed using the PHERAstar microplate reader.
The IP-One Gq assay detects the accumulation of inositol monophosphate (IP1), a metabolite produced following phospholipase C activation.
The assays were performed on 384-well plates containing HEK293 cells that overexpress the ghrelin receptor. First, the Gq/11 peptidomimetics were incubated during 1 h to allow penetration in the cells. […] After 45 min of incubation, the cells were lysed and d2-labeled IP1 (acceptor, 665 nm) was exogenously added to compete with the native unlabeled IP1 for binding with the anti-IP1-Cryptate (donor, 620 nm). Fluorescence was measured and the fluorescence ratio (665 nm/620 nm) was determined.

T1 sequence (Q92847 whole entry C146S/C304S, the tested form may be a part): as the sequence (Q92847 whole entry) above, with C146S, C304S counted along it

CC[C@H](C)[C@H](NC(=O)[C@@H](NC(=O)[C@H](CC(=O)O)NC(=O)[C@H](CCCCN)NC(=O)[C@@H](NC(=O)[C@H](C)NC(=O)[C@H](C)NC(=O)[C@H](Cc1ccccc1)NC(=O)[C@H](CCCCN)NC(=O)[C@H](CCCCN)NC(=O)[C@H](CCCCN)NC(C)=O)C(C)C)[C@@H](C)O)C(=O)N[C@@H](CC(C)C)C(=O)N[C@@H](CCC(N)=O)C(=O)N[C@@H](CC(C)C)C(=O)N[C@@H](CC(N)=O)C(=O)N[C@@H](CC(C)C)C(=O)N[C@@H](CCCCN)C(=O)N[C@@H](CCC(=O)O)C(=O)N[C@@H](Cc1ccc(O)cc1)C(=O)N[C@@H](CC(N)=O)C(=O)N[C@@H](CC1CCCCC1)C(=O)N[C@H](C(=O)O)C(C)C [SBL-GQ-04] (Ac-KKKFAAVKDTILQLNLKEYN[Cha]V-OH)
conformational change in the receptor [1]: not able to induce a conformational change
receptor activation / fluorescence ratio (665 nm/620 nm) vs absence of peptidomimetic (ghrelin receptor): Almost no difference in receptor activation
